Assay results from article PMC12948223, “HSP70 Interactome‐Mediated Proteolysis Targeting Chimera (HSP70‐PROTAC) for Ferroptosis‐Driven Cancer Treatment” (Advanced Science, 2025).

Experiments:
HT1080 xenograft tumor = HT1080 xenograft tumor mouse model, antitumor efficacy and safety; format: in vivo; settings: for TGI (tumor growth inhibition): 17 days
Protocol: Motivated by the aforementioned in vitro findings, we subsequently sought to evaluate the in vivo antitumor efficacy of GDAz‐3 using an HT1080 xenograft tumor mouse model. The tumor‐bearing mice were randomly divided into six groups, minimizing weight and tumor size differences among the groups (n = 6 in each group). The treatment group mice were administered once daily by intraperitoneal injection (IP) with GDAz‐3 at a dosage of 30 or 60 mg kg^−1, while the control group animals were treated with the corresponding solvent, ML162, and apoptozole at a dosage of 30 mg kg^−1. Additionally, we set up a drug combination group to confirm the superiority of GDAz‐3. After treatment for 17 days, animals were humanely euthanized and the tumors were excised (Figure 7B). […] The advantage of the safety of GDAz‐3 was also determined by the hematoxylin and eosin (H&E) staining. […] In general, compared with the single inhibitor or their combination, the in vivo antitumor study confirmed the efficacy and safety of GDAz‐3.
The experimental procedures of the animal experiments were permitted by the Hangzhou Institute of Medicine (HIM), Chinese Academy of Sciences (AP2024‐07‐0010). Male BALB/c nude mice (6 weeks old) were housed under pathogen‐free conditions, maintained at a constant room temperature, and fed standard rodent chow and water. An HT1080 fibrosarcoma xenograft model in nude mice was established through subcutaneous transplantation. When the tumors emerged, the mice were randomly divided into six groups with six mice in each group: GDAz‐3‐treated at 30 or 60 mg kg^−1 group and control groups, including the vehicle group, and each of the two inhibitor‐treated groups (ML162 and apoptozole) at 30 mg kg^−1, and their combinations. The mice were intraperitoneally (IP) injected daily according to their body weight. Body weight and tumor size were measured every other day, and the tumor volume and body weight were recorded every other day after drug treatment. After treatment, the animals were euthanized by cervical dislocation, and the tumor bulks were peeled off and weighed. The organ tissues (tumor, heart, liver, spleen, lung, and kidney) were harvested and fixed with 4% paraformaldehyde for hematoxylin‐eosin (H&E) and immunohistochemistry (IHC) staining. In addition, the expression of GPX4 in tumor samples was analyzed in vehicle‐ and GDAz‐3‐treated groups by western blot assay.

GPX4 = target: T1, GPX4 (Homo sapiens, UniProt P36969); assay: Quantitative proteomics of HT1080 cells; format: cell-based; set-up: determine the changes in the endogenous levels of GPX4 by western blot assay; endogenous in cells; host or cells: HT1080 fibrosarcoma cells, including siRNA-knockdown derivatives; settings: 2 µM, 18 h
T1 sequence (P36969 1-170 isoform P36969-2): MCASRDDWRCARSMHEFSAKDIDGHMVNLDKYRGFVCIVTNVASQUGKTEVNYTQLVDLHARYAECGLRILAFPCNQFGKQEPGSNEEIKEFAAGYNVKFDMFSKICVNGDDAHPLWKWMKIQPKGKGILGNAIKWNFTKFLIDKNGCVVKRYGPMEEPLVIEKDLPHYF
Protocol: The proteomics data were generated by Shanghai Bioprofile Co., Ltd. After treatment with compound GDAz‐3 (2 µM) or DMSO for 18 h, the samples were collected. LC‐MS/MS analysis was conducted using an Orbitrap Astral zoom mass spectrometer paired with a Vanquish Neo UHPLC system (Thermo Fisher Scientific). Peptides from each sample were loaded into a column (50 cm Low‐Load µPAC Neo HPLC Column, Thermo Scientific) at a flow rate of 2.2 µL min^−1. The reversed‐phase high‐performance liquid chromatography (RP‐HPLC) mobile phases consisted of solvent A (0.1% formic acid in water) and solvent B (0.1% formic acid in 80% acetonitrile). Peptide elution was performed over 4.8 min with a linear gradient of buffer B at a flow rate 1.25 µL min^−1. The linear gradient was programmed as follows: 0–0.1 min, an increase from 4% to 6% solvent B; 0.1–1.1 min, from 6% to 12% buffer B; 1.1–4.3 min, from 12% to 25% buffer B; 4.3–6.1 min, from 25% to 45% buffer B; 6.1–6.5 min, from 45% to 99% buffer B; 6.5–8 min, buffer B maintained at 99%. The eluted peptides were subsequently analyzed on a Orbitrap Astral mass spectrometer. The DIA method consisted of a full scan m/z range of 380–980 at resolution 240 000 with AGC target of 500% and 5 ms injection time. […] Full MS scan spectra were recorded in profile mode, whereas DIA scan spectra were collected in centroid mode.

MDA = MDA content in HT1080 cells; format: cell-based, human; settings: HT1080 cells, 0.1, 0.5 and 1 µM, 24 h
Protocol: HT1080 cells were seeded into 10‐cm diameter culture dishes at a density of 2 × 10⁶ cells overnight and then exposed to GDAz‐3 (0.1, 0.5, and 1 µM). The cells were cultured for another 24 h, and the culture medium was discarded, washed with PBS, and lysed using IP lysis buffer (Servicebio, G2038). After lysis, the samples were centrifuged at 12 000 × g for 15 min at 4 °C. The supernatant was collected, and the MDA content was determined according to the instructions of the Lipid Peroxidation MDA Assay Kit (Beyotime Biotechnology, S00131S).

HT1080 cells = assay: Cell viability CCK-8 assay; format: cell-based, human; settings: Homo sapiens, HT-1080, CCK-8, 48 h, read-out: IC50 (cytotoxicity)
Outline: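 HT1080 cells seeded 24 h, then exposed to serial compound dilutions (final DMSO <0.5% v/v) for 48 or 72 h at 37 °C. Viability by CCK-8 absorbance at 450 nm; IC50 from nonlinear regression, ≥3 independent repeats.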

Compound: COc1ccc(-c2nc(-c3cc(C(F)(F)F)cc(C(F)(F)F)c3)n(Cc3ccc(C(=O)NCCOCCOCCOCCn4cc(COc5ccc(N(C(=O)CCl)C(C(=O)NCCc6ccccc6)c6cccs6)cc5Cl)nn4)cc3)c2-c2ccc(OC)cc2)cc1 (stereo not shown) [GDAz-3, 4-((2-(3,5-bis(trifluoromethyl)phenyl)-4,5-bis(4-methoxyphenyl)-1H-imidazol-1-yl)methyl)-N-(2-(2-(2-(2-(4-((2-chloro-4-(2-chloro-N-(2-oxo-2-(phenethylamino)-1-(thiophen-2-yl)ethyl)acetamido)phenoxy)methyl)-1H-1,2,3-triazol-1-yl)ethoxy)ethoxy)ethoxy)ethyl)benzamide]
- TGI (tumor growth inhibition) (HT1080 xenograft tumor; 30 mg/kg IP once daily): 52%
- TGI (tumor growth inhibition) (HT1080 xenograft tumor; 60 mg/kg IP once daily): 67%
- Body weight of the mice (HT1080 xenograft tumor; 30 or 60 mg/kg IP once daily): did not obviously reduce the body weight
- H&E staining of major organs (heart, liver, spleen, lung, kidney) (HT1080 xenograft tumor; GDAz-3-treated group): did not observe significant toxic changes in the major organs
- Proteomics profiling, GPX4 abundance (GPX4): clear degradation of GPX4
- Content of MDA (MDA): increased
- IC50 (HT1080 cells): 0.28 µM
